Read-outs that look alike come from different tables or passages of the source.
What was measured:
5‐HT1A receptor = molecular target: T1, 5‐HT1A receptor (Rattus norvegicus, UniProt P19327); assay: 5‐HT1A competition binding assay ([3H]8‐OH‐DPAT, hippocampal membranes); details: 1 nM [3H]8‐OH‐DPAT
T1 construct: 80 μg of hippocampal membrane suspension (the 5‐HT1A assay); from tissue; host or cells: rat (Sprague-Dawley) hippocampus membranes
T1 sequence (P19327 1-422): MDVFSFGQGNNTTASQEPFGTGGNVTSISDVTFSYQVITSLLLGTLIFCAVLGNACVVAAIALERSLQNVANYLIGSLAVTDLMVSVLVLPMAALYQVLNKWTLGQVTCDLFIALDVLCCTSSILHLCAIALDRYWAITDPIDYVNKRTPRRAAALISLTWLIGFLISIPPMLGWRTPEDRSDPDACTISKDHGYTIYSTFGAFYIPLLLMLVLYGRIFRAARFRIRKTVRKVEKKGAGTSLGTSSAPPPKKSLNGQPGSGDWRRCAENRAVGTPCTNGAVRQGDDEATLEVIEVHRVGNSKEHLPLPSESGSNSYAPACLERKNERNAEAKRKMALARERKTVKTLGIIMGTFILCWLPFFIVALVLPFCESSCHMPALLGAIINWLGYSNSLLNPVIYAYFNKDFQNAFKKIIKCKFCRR
Procedure: (§1) Sprague‐Dawley rats were sacrificed by isoflurane overdose. Brains were rapidly removed and placed on ice. Hippocampi (for the 5‐HT1A assay) and frontal cortices (for the 5‐HT2A and 5‐HT2C assays) were dissected on a Petri dish. The tissue from 10 rats was homogenized in 30 vol. homogenization buffer (50 mM Tris–HCl, […], 1 mM EDTA, 1 mM dithiothreitol) with a handheld Teflon‐glass homogenizer. The homogenate was centrifuged at 48,000 × g at 4 °C for 15 min. The pellet was suspended and homogenized in the homogenization buffer and incubated for 10 min. at 36 °C. The centrifugation and suspension steps were repeated twice. The final pellet was homogenized in 5 vol. 50 mM Tris–HCl, pH = 7.4 buffer and stored at −80 °C for no longer than 6 months. […] For the 5‐HT2C assay, compounds were incubated in duplicate with 5 nM [^3H]mesulergine (specific activity: 80.2 Ci mmol^−1, Revvity, MA, USA) for 60 min. at 36 °C in a 50 mM Tris‐HCl (pH 7.4) buffer, supplemented with 5 mM MgCl2, 140 mM NaCl, 1 mM DTT, 1 mM CaCl2, 10 μM pargyline and 160μg of the frontal cortex membrane suspension. Non‐specific binding was determined with 10μM serotonin. The final DMSO concentration in the assay was 5%. After incubation, the reaction mixture was deposited onto Unifilter GF/C plates (Revvity, MA, USA) presoaked in 0.4% PEI (or 0.4% PEI and 0.5% Triton X‐100 for the 5‐HT2C assay) for 1 h with the FilterMate‐96 Harvester (Revvity, MA, USA). Then, each well was washed with 2 mL of 50 mM Tris–HCl (pH 7.4) buffer to separate bound ligands from free and the plates were left to dry overnight. Then, 35μl of Microscint‐20 scintillation fluid (Revvity, MA, USA) was added to each filter well and left to equilibrate for 2h. Filter‐bound radioactivity was counted in a MicroBeta2 LumiJet scintillation counter (Revvity, MA, USA). Binding curves were fitted with one site non‐linear regression. Binding affinity (pKi and Ki) for each compound was calculated from the […] values with the Cheng‐Prusoff equation from two separate experiments.

5‐HT2C receptor = molecular target: T2, 5‐HT2C receptor (Rattus norvegicus, UniProt P08909); assay: 5‐HT2C competition binding assay ([3H]mesulergine, frontal cortex membranes); details: 5 nM [3H]mesulergine
T2 construct: 10 μM pargyline and 160μg of the frontal cortex membrane suspension; from tissue; host or cells: rat (Sprague-Dawley) frontal cortex membranes
T2 sequence (P08909 33-460): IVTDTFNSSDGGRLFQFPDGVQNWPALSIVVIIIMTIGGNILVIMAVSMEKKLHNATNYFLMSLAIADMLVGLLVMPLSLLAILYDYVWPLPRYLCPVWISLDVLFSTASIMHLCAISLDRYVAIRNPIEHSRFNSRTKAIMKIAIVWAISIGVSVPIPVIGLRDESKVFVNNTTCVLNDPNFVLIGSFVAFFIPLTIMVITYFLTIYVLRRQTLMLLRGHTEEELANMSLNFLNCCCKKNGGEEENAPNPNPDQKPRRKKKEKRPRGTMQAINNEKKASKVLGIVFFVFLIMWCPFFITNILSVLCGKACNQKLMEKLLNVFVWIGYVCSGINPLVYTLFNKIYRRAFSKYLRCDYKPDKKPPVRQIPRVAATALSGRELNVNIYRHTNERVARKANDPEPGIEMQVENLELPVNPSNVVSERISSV
Procedure: as §1

[1] = read-out: 5‐HT1A pKi (converted)
[2] = 95% CI in brackets, read-out: 5‐HT2C Ki (95% CI)
[3] = 95% CI in brackets, read-out: 5‐HT1A Ki (95% CI)
[4] = read-out: 5‐HT2C pKi (converted)

Row | SMILES | Ki (5‐HT1A receptor; [1]) [nM] | Ki (5‐HT2C receptor; [2]) [nM] | Ki (5‐HT1A receptor; [3]) [nM] | Ki (5‐HT2C receptor; [4]) [nM]
1 | O=C(NCCCN1CCN(c2ccc(C3=NCCS3)cc2)CC1)C1CC2C=CC1C2 (stereo not drawn) [FG‐18, Endo‐ N‐(3‐(4‐(4‐(4,5‐dihydrothiazol‐2‐yl)phenyl)piperazin‐1‐yl)propyl) bicyclo[2.2.1]hept‐5‐ene‐2‐carboxamide] | 20000 | 17 |  | 
2 | O=C1C2C3C=CC(C3)C2C(=O)N1OCCCN1CCN(c2cccc(C3=NCCS3)c2)CC1 (centres unmarked) [FG‐8, 2‐(3‐(4‐(3‐(4,5‐dihydrothiazol‐2‐yl) phenyl) piperazin‐1‐yl) propoxy)‐3a,4,7,7a‐tetrahydro‐1H‐4,7‐methanoisoindole‐1,3(2H)‐dione] | 724 | 46 | 710 | 46.8
3 | O=C(NCCCN1CCN(c2cccc(C3=NCCS3)c2)CC1)c1ccccn1 [FG‐2, N‐(3‐(4‐(3‐(4,5‐dihydrothiazol‐2‐yl) phenyl) piperazin‐1‐yl) propyl) picolinamide] |  | 816 | 1860 | 832
4 | O=C(NCCCN1CCN(c2ccccc2C2=NCCS2)CC1)c1ccccn1 [FG‐1, N‐(3‐(4‐(2‐(4,5‐dihydrothiazol‐2‐yl) phenyl) piperazin‐1‐yl) propyl) picolinamide] |  | 6860 | 2350 | 
5 | O=C(NCCCN1CCN(c2cccc(C3=NCCS3)c2)CC1)c1ccncc1 [FG‐5, N‐(3‐(4‐(3‐(4,5‐dihydrothiazol‐2‐yl) phenyl) piperazin‐1‐yl) propyl) isonicotinamide] |  | 12500 | 1100 | 
6 | O=C(NCCCN1CCN(c2ccccc2C2=NCCS2)CC1)c1ccncc1 [FG‐4, N‐(3‐(4‐(2‐(4,5‐dihydrothiazol‐2‐yl) phenyl) piperazin‐1‐yl) propyl) isonicotinamide] |  | 7280 | 1540 | 
7 | O=C(NCCCN1CCN(c2ccc(C3=NCCS3)cc2)CC1)c1ccncc1 [FG‐6, N‐(3‐(4‐(4‐(4,5‐dihydrothiazol‐2‐yl) phenyl) piperazin‐1‐yl) propyl) isonicotinamide] | 26300 | 2210 |  | 2240
8 | O=C1C2C3C=CC(C3)C2C(=O)N1OCCCN1CCN(c2ccccc2C2=NCCS2)CC1 (centres unmarked) [FG‐7, 2‐(3‐(4‐(2‐(4,5‐dihydrothiazol‐2‐yl) phenyl) piperazin‐1‐yl) propoxy)‐3a,4,7,7a‐tetrahydro‐1 H‐4,7‐methanoisoindole‐1,3(2 H)‐dione] |  | 80800 | 54 | 
